Measured values from patent US8101550B2, “Anthranilic acid diamide derivative with hetero-aromatic and hetero-cyclic substituents” (Bayer Cropscience AG, priority 2006, dated 2012).

Assay: log P determination by HPLC on reverse-phase column (EEC Directive 79/831 Annex V.A8)
Assay type: physicochemical
Settings: not given
Method in brief: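 Log P was derived from retention times by linear interpolation between successive unbranched alkan-2-one standards (C3–C16). The standards and samples ran on a C18 reverse-phase column at 43 °C with a 10→95% acetonitrile gradient in 0.1% formic acid (pH 2.7). The method follows EEC Directive 79/831 Annex V.A8.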

Structure (SMILES) | logP
CNC(=O)c1cc(Cl)cc(Cl)c1NC(=O)c1cc(Cn2cc(Cl)c(C(F)(F)C(F)(F)F)n2)nn1-c1ncccc1Cl [I-1-308] | 3.18
CC(C)NC(=O)c1cc(Cl)cc(Cl)c1NC(=O)c1cc(Cn2cc(Cl)c(C(F)(F)C(F)(F)F)n2)nn1-c1ncccc1Cl [I-1-309] | 3.53
N#CCNC(=O)c1cc(Cl)cc(Cl)c1NC(=O)c1cc(Cn2cc(Cl)c(C(F)(F)C(F)(F)F)n2)nn1-c1ncccc1Cl [I-1-310] | 3.13
NC(=O)c1cc(Cl)cc(Cl)c1NC(=O)c1cc(Cn2ccc(C(F)(F)F)n2)nn1-c1ncccc1Cl [I-1-311] | 2.21
CNC(=O)c1cc(Cl)cc(Cl)c1NC(=O)c1cc(Cn2ccc(C(F)(F)F)n2)nn1-c1ncccc1Cl [I-1-312] | 2.37
N#CCNC(=O)c1cc(Cl)cc(Cl)c1NC(=O)c1cc(Cn2ccc(C(F)(F)F)n2)nn1-c1ncccc1Cl [I-1-313] | 2.43
CC(C)NC(=O)c1cc(Cl)cc(Cl)c1NC(=O)c1cc(Cn2ccc(C(F)(F)F)n2)nn1-c1ncccc1Cl [I-1-314] | 2.77
O=C(NC1CC1)c1cc(Cl)cc(Cl)c1NC(=O)c1cc(Cn2ccc(C(F)(F)F)n2)nn1-c1ncccc1Cl [I-1-315] | 2.54
CNC(=O)c1cc(Cl)cc(Cl)c1NC(=O)c1cc(Cc2cccnc2)nn1-c1ncccc1Cl [I-1-316] | 1.03
CC(C)NC(=O)c1cc(Cl)cc(Cl)c1NC(=O)c1cc(Cc2cccnc2)nn1-c1ncccc1Cl [I-1-317] | 1.31
CC(C)NC(=O)c1cc(Cl)cc(Cl)c1NC(=O)c1cc(Cc2cncnc2)nn1-c1ncccc1Cl [I-1-318] | 1.62
NC(=O)c1cc(Cl)cc(Cl)c1NC(=O)c1cc(Cc2cncnc2)nn1-c1ncccc1Cl [I-1-319] | 2.02
N#CCNC(=O)c1cc(Cl)cc(Cl)c1NC(=O)c1cc(Cc2cncnc2)nn1-c1ncccc1Cl [I-1-320] | 1.49
CNC(=O)c1cc(Cl)cc(Cl)c1NC(=O)c1cc(Cc2cncnc2)nn1-c1ncccc1Cl [I-1-321] | 1.41
CNC(=O)c1cc(Cl)cc(Cl)c1NC(=O)c1cc(Cc2c(C)noc2C)nn1-c1ncccc1Cl [I-1-322] | 1.94
Cc1cc(Cl)cc(C(=O)NC(C)C)c1NC(=O)c1cc(Cn2cnc(C(F)(F)C(F)(F)F)n2)nn1-c1ncccc1Cl [I-1-323] | 3.01
C[C@@H](C[S+](C)[O-])NC(=O)c1cc(Cl)cc(Cl)c1NC(=O)c1cc(Cn2cc(C(F)(F)C(F)(F)F)c(C(F)(F)C(F)(F)F)n2)nn1-c1ncccc1Cl (stereo partly drawn) [I-1-325] | 3.54
CNC(=O)c1cc(Cl)cc(Cl)c1NC(=O)c1cc(Cn2cnc(C(F)(F)C(F)(F)F)n2)nn1-c1ncccc1Cl [I-1-326] | 2.55
CC(C)NC(=O)c1cc(Cl)cc(Cl)c1NC(=O)c1cc(Cn2cnc(C(F)(F)C(F)(F)F)n2)nn1-c1ncccc1Cl [I-1-327] | 2.97
C[C@@H](CS(C)(=O)=O)NC(=O)c1cc(Cl)cc(Cl)c1NC(=O)c1cc(Cn2cc(C(F)(F)C(F)(F)F)c(C(F)(F)C(F)(F)F)n2)nn1-c1ncccc1Cl [I-1-328] | 3.63
CNC(=O)c1cc(Cl)cc(C)c1NC(=O)c1cc(Cn2cnc(C(F)(F)C(F)(F)F)n2)nn1-c1ncccc1Cl [I-1-329] | 2.57
Cc1cc(Cl)cc(C(N)=O)c1NC(=O)c1cc(Cn2cnc(C(F)(F)C(F)(F)F)n2)nn1-c1ncccc1Cl [I-1-330] | 2.39
Cc1cc(Cl)cc(C(=O)NC2CC2)c1NC(=O)c1cc(Cn2cnc(C(F)(F)C(F)(F)F)n2)nn1-c1ncccc1Cl [I-1-331] | 2.78
Cc1cc(Cl)cc(C(=O)NCC#N)c1NC(=O)c1cc(Cn2cnc(C(F)(F)C(F)(F)F)n2)nn1-c1ncccc1Cl [I-1-332] | 2.59

Structure (SMILES) | logP
CNC(=O)c1cc(C#N)cc(C)c1NC(=O)c1cc(Cn2cnc(C(F)(F)C(F)(F)F)n2)nn1-c1ncccc1Cl [I-1-333] | 2.25
Cc1cc(Cl)cc(C(=O)NC(C)C)c1NC(=O)c1cc(Cn2cnc(C(F)(F)C(F)(F)F)n2)nn1-c1ncccc1Cl [I-1-334] | 2.66
O=C(NC1CC1)c1cc(Cl)cc(Cl)c1NC(=O)c1cc(Cn2cnc(C(F)(F)C(F)(F)F)n2)nn1-c1ncccc1Cl [I-1-335] | 2.69
NC(=O)c1cc(Cl)cc(Cl)c1NC(=O)c1cc(Cn2cnc(C(F)(F)C(F)(F)F)n2)nn1-c1ncccc1Cl [I-1-336] | 2.32
N#CCNC(=O)c1cc(Cl)cc(Cl)c1NC(=O)c1cc(Cn2cnc(C(F)(F)C(F)(F)F)n2)nn1-c1ncccc1Cl [I-1-337] | 2.56
Cc1cc(C#N)cc(C(=O)NC2CC2)c1NC(=O)c1cc(Cn2cnc(C(F)(F)C(F)(F)F)n2)nn1-c1ncccc1Cl [I-1-338] | 2.45
Cc1cc(C#N)cc(C(N)=O)c1NC(=O)c1cc(Cn2cnc(C(F)(F)C(F)(F)F)n2)nn1-c1ncccc1Cl [I-1-339] | 2.11
CC(C)NC(=O)c1cc(Cl)cc(Cl)c1NC(=O)c1cc(Cn2cnc(C(F)(F)C(F)(F)F)n2)nn1-c1ncccc1Cl [I-1-340] | 2.55
Cc1cc(Cl)cc(C(=O)NC(C)C)c1NC(=O)c1cc(Cn2cnc(C(F)(F)C(F)(F)F)n2)nn1-c1ncccc1Cl [I-1-341] | 2.63
CNC(=O)c1cc(Cl)cc(Cl)c1NC(=O)c1cc(Cn2cnc(C(F)(F)C(F)(F)F)n2)nn1-c1ncccc1Cl [I-1-342] | 2.15
Cc1cc(Cl)cc(C(N)=O)c1NC(=O)c1cc(Cn2cnc(C(F)(F)C(F)(F)F)n2)nn1-c1ncccc1Cl [I-1-343] | 2.02
O=C(NC1CC1)c1cc(Cl)cc(Cl)c1NC(=O)c1cc(Cn2cnc(C(F)(F)C(F)(F)F)n2)nn1-c1ncccc1Cl [I-1-344] | 2.37
Cc1cc(Cl)cc(C(=O)NC2CC2)c1NC(=O)c1cc(Cn2cnc(C(F)(F)C(F)(F)F)n2)nn1-c1ncccc1Cl [I-1-345] | 2.42
NC(=O)c1cc(Cl)cc(Cl)c1NC(=O)c1cc(Cn2cnc(C(F)(F)C(F)(F)F)n2)nn1-c1ncccc1Cl [I-1-346] | 2.01
CNC(=O)c1cc(Cl)cc(C)c1NC(=O)c1cc(Cn2cnc(C(F)(F)C(F)(F)F)n2)nn1-c1ncccc1Cl [I-1-347] | 2.19
Cc1cc(Cl)cc(C(=O)NCC#N)c1NC(=O)c1cc(Cn2cnc(C(F)(F)C(F)(F)F)n2)nn1-c1ncccc1Cl [I-1-348] | 2.21
N#CCNC(=O)c1cc(Cl)cc(Cl)c1NC(=O)c1cc(Cn2cnc(C(F)(F)C(F)(F)F)n2)nn1-c1ncccc1Cl [I-1-349] | 2.19
Cc1cc(C#N)cc(C(N)=O)c1NC(=O)c1cc(Cn2cnc(C(F)(F)C(F)(F)F)n2)nn1-c1ncccc1Cl [I-1-350] | 1.75
Cc1cc(C#N)cc(C(=O)NCC#N)c1NC(=O)c1cc(Cn2cnc(C(F)(F)C(F)(F)F)n2)nn1-c1ncccc1Cl [I-1-351] | 1.96
CNC(=O)c1cc(C#N)cc(C)c1NC(=O)c1cc(Cn2cnc(C(F)(F)C(F)(F)F)n2)nn1-c1ncccc1Cl [I-1-352] | 1.91
Cc1cc(C#N)cc(C(=O)NC2CC2)c1NC(=O)c1cc(Cn2cnc(C(F)(F)C(F)(F)F)n2)nn1-c1ncccc1Cl [I-1-353] | 2.08
Cc1cc(C#N)cc(C(=O)NC(C)C)c1NC(=O)c1cc(Cn2cnc(C(F)(F)C(F)(F)F)n2)nn1-c1ncccc1Cl [I-1-354] | 2.23
CNC(=O)c1cc(Cl)cc(C)c1NC(=O)c1cc(C(=NOC)n2nc(C(F)(F)F)cc2C(F)(F)F)nn1-c1ncccc1Cl [I-1-355] | 4.07

Same assay, conditions: HPLC, reverse-phase column (C 18), 43° C., acidic range pH 2.7

Structure (SMILES) | logP
Cc1cc(Cl)cc(C(=O)NC(C)C)c1NC(=O)c1cc(Cn2nc(C(F)(F)F)cc2C(F)(F)F)nn1C [I-2-1] | 4.08
CC(C)NC(=O)c1cc(Cl)cc(Cl)c1NC(=O)c1cc(Cn2nc(C(F)(F)F)nc2C(F)(F)F)nn1C(C)C [I-2-2] | 3.85
CNC(=O)c1cc(Cl)cc(Cl)c1NC(=O)c1cc(Cn2nc(C(F)(F)F)nc2C(F)(F)F)nn1C(C)C [I-2-3] | 3.31
CNC(=O)c1cc(Cl)cc(Cl)c1NC(=O)c1cc(Cn2nc(C(F)(F)F)nc2C(F)(F)F)nn1C1CCCO1 (stereo not drawn) [I-2-5] | 2.83
CNC(=O)c1cc(Cl)cc(Cl)c1NC(=O)c1cc(Cn2nc(C(F)(F)F)nc2C(F)(F)F)nn1C1CCOC1 (stereo not drawn) [I-2-6] | 2.99
CC(C)NC(=O)c1cc(Cl)cc(Cl)c1NC(=O)c1cc(Cn2nc(C(F)(F)F)cc2C(F)(F)F)nn1-c1ncc(C(F)(F)F)cc1Cl [I-2-8] | 4.68
Cc1cc(I)cc(C(=O)NC(C)C)c1NC(=O)c1cc(Cn2nc(C(F)(F)F)cc2C(F)(F)F)nn1-c1ncc(C(F)(F)F)cc1Cl [I-2-9] | 4.98
Cc1cc(I)cc(C(=O)NC2CC2)c1NC(=O)c1cc(Cn2nc(C(F)(F)F)cc2C(F)(F)F)nn1-c1ncc(C(F)(F)F)cc1Cl [I-2-10] | 4.73
Cc1cc(Cl)cc(C(=O)NC(C)C)c1NC(=O)c1cc(Cn2nc(C(F)(F)F)cc2C(F)(F)F)nn1-c1ncc(C(F)(F)F)cc1Cl [I-2-11] | 4.78
Cc1cc(Cl)cc(C(=O)NC2CC2)c1NC(=O)c1cc(Cn2nc(C(F)(F)F)cc2C(F)(F)F)nn1-c1ncc(C(F)(F)F)cc1Cl [I-2-12] | 4.52
O=C(NC1CC1)c1cc(Cl)cc(Cl)c1NC(=O)c1cc(Cn2nc(C(F)(F)F)cc2C(F)(F)F)nn1-c1ncc(C(F)(F)F)cc1Cl [I-2-13] | 4.46
Cc1cc(Cl)cc(C(=O)NC(C2CC2)C2CC2)c1NC(=O)c1cc(Cn2nc(C(F)(F)F)cc2C(F)(F)F)nn1-c1ncc(C(F)(F)F)cc1Cl [I-2-14] | 5.27
Cc1cc(Cl)cc(C(=O)NC(C)C2CC2)c1NC(=O)c1cc(Cn2nc(C(F)(F)F)cc2C(F)(F)F)nn1-c1ncc(C(F)(F)F)cc1Cl (stereo not drawn) [I-2-15] | 4.04
Cc1cc(Cl)cc(C(=O)NC(C)(C)C)c1NC(=O)c1cc(Cn2nc(C(F)(F)F)cc2C(F)(F)F)nn1-c1ncc(C(F)(F)F)cc1Cl [I-2-16] | 5.12
Cc1cc(Cl)cc(C(N)=O)c1NC(=O)c1cc(Cn2nc(C(F)(F)F)cc2C(F)(F)F)nn1-c1ncc(C(F)(F)F)cc1Cl [I-2-17] | 4.09
Cc1cc(Cl)cc(C(=O)NCC#N)c1NC(=O)c1cc(Cn2nc(C(F)(F)F)cc2C(F)(F)F)nn1-c1ncc(C(F)(F)F)cc1Cl [I-2-18] | 4.23
